According to patent US12616203B2, “Use of 3-isoxazolidinones compounds as selective herbicides” (FMC Corporation, priority 2014, dated 2026):

Experiments:
[1] = tested on: Wild mustard; assay: Ex13 PRE 2,4-DC + diflufenican, % control 28 DAT, Colby; assay type: in vivo, Sinapis arvensis
Excerpt: Pyroxasulfone (KIH-485, 85%) at 74.3 g ai/ha, pendimethalin (Prowl 3.3EC, 37.4%) at 1200 g ai/ha, or a premix of chlorsulfuron plus metsulfuron-methyl (Report Extra, 75%) at 15.8 g ai/ha were applied as commercial standards. […] Treatments were replicated 3 times and flats were watered after planting before the treatment and lightly watered after treatment application. Thereafter flats were watered and fertilized routinely.

[2] = tested on: Black nightshade; assay: Ex15 PRE 2,4-DC + S-metolachlor, % control 28 DAT, Colby; assay type: in vivo, Solanum nigrum
Excerpt: (§1) The weeds tested in this study were redroot pigweed (Amaranthus retroflexus, AMARE), Jimsonweed (Datura stramonium, DATST), black nightshade (Solanum nigrum, SOLNI), large crabgrass (Digitaria sanguinalis, DIGSA), Pennsylvania smartweed (Polygonum pensylvanicum, POLPY), horseweed (Conyza canadensis, ERICA), wild buckwheat (Polygonum convolvulus, POLCO). The crop tested was Corn (var. Viking).
(§2) To determine PRE efficacy and corn injury, five rates of each 2,4 DC (36.7% CS) and S-metolachlor (Dual II Magnum®, 82.4%) were applied either alone or as tank-mix. 2,4 DC was applied at 0, 125, 170, 210, or 250 g ai/ha and S-metolachlor was applied at 0, 267, 534, 801, or 1070 g ai/ha. Additional treatments included application of premix of pyroxasulfone plus fluthiacet-methyl (Anthem™ 23.3%) at 169.9 g ai/ha and tank-mix of mesotrione (Callisto®, 40%) at 123 g plus S-metolachlor at 1252 g. Treatments were applied just after the planting of large crabgrass, Jimsonweed, black nightshade, redroot pigweed, Pennsylvania smartweed, horseweed, wild buckwheat, and corn.
(§3) Flats were watered and fertilized routinely after treatment application. Each treatment was replicated three times. […] Corn injury was rated for bleaching and stunting.

[3] = tested on: Pennsylvania smartweed; assay: as above; assay type: in vivo, Polygonum pensylvanicum
Excerpt: as §1, §2, §3

[4] = tested on: Common ragweed; assay: Ex16 PRE 2,4-DC + pyroxasulfone, % control 28 DAT, Colby; assay type: in vivo, Ambrosia artemisiifolia
Excerpt: To determine PRE efficacy, five levels of 2,4 DC (36.7% CS) 0, 125, 170, 210, or 250 g ai/ha and five levels of pyroxasulfone (KIH485-85WG) 0, 50, 65, 80, or 95 g ai/ha were applied either alone or as tank-mix. Additional treatments consisted of premix of pyroxasulfone plus fluthiacet-methyl (Anthem™ 23.3%) at 169.9 g ai/ha, S-metolachlor (Dual II Magnum, 82.4%) at 1388 g, and tank-mix of mesotrione (Callisto, 40%) at 123 g plus S-metolachlor at 1252 g. […] Treatments were applied before the emergence of black nightshade, giant foxtail, green foxtail, yellow foxtail, large crabgrass, kochia, redroot pigweed, common ragweed, and barnyardgrass.
Flats were watered and fertilized routinely after treatment application. Each treatment was replicated three times.

[5] = tested on: Common lambsquarters; assay: Ex34 PRE 2,4-DC + napropamide, % control, Colby; assay type: in vivo, Chenopodium album; settings: 28 DAT
Excerpt: Thereafter flats were watered and fertilized routinely.

[6] = tested on: Wild mustard; assay: Ex35 PRE 2,4-DC + dimethachlor + napropamide, % control 28 DAT, Colby; assay type: in vivo, Sinapis arvensis
Excerpt: Crops screened were wheat and canola.

[7] = tested on: Italian ryegrass; assay: Ex36 POST 2,4-DC + metsulfuron-methyl, % control 28 DAT, Colby; assay type: in vivo, Lolium perenne L. ssp. multiflorum
Excerpt: Crops screened were wheat and barley.

[8] = tested on: Common cocklebur; assay: Ex37 PRE 2,4-DC + atrazine, % control 28 DAT, Colby; assay type: in vivo, Xanthium strumarium
Excerpt: S-metolachlor (DUAL II MAGNUM®, 82.4%) at 525 g ai/h plus atrazine at 560 g ai/h was included as a standard for comparison. […] Thereafter flats were watered and fertilized routinely.

[9] = tested on: Sorghum; assay: Ex46 PRE sorghum injury 7, 14, 21, 28 DAT; settings: rate in the words
Procedure: Treatments were applied to sorghum at the time of planting using Pennington soil. Each treatment was replicated four times. Soil was watered before and after application for herbicide activation. Plants were watered and fertilized routinely. […] Visual percent crop injury was recorded at 7, 14, 21, and 28 days after treatment using a scale of 0 (no injury) to 100 (complete plant death).

[10] = tested on: weeds; assay: Ex22 PRE greenhouse; assay type: in vivo; settings: 28 DAT, weed and rate in the words
Excerpt: 2,4 DC (36.7% CS) was applied PRE at 0, 125, 170, 210, or 250 g ai/ha alone or as a tank-mix with S-metolachlor (Dual II Magnum®, 82.4%) at 0, 267, 534, 801, or 1070 g ai/ha. Pyroxasulfone plus fluthiacet-methyl (Anthem™, 23.3%) applied at 169.9 g ai/ha, and the tank-mix of mesotrione (Callisto®, 40%) at 123 g plus S-metolachlor (Dual II Magnum®, 82.4%) at 1252 g were included as a standards for comparison.
Thereafter flats were watered and fertilized routinely. Each treatment was replicated three times.

[11] = tested on: sweet corn, yellow corn, and sorghum; settings: PRE; crop and rate in the words
Excerpt: Treatments were also applied ot sweet corn, yellow corn, and sorghum.
Treatments were applied before the emergence of Jimsonweed, velvetleaf, hairy beggarticks, common cocklebur, barnyardgrass, sweet corn, yellow corn, and sorghum. Plant species were planted in fiber flats (6″×10″) containing Pennington soil and flats were watered well before application and watered lightly after application. Flats were watered and fertilized routinely after treatment application.

SMILES: CC1(C)CON(Cc2ccc(Cl)cc2Cl)C1=O [2,4-DC, 2-(2,4-dichlorophenyl)methyl-4,4-dimethyl-3-isoxazolidinone]
- X ([1]; 2,4-DC alone 125 g ai/ha): 10%
- X ([1]; 2,4-DC alone 170 g ai/ha): 15%
- X ([1]; 2,4-DC alone 210 g ai/ha): 26%
- X ([1]; 2,4-DC alone 250 g ai/ha): 23%
- X ([2]; 2,4-DC alone 125 g ai/ha): 32%
- X ([2]; 2,4-DC alone 170 g ai/ha): 33%
- X ([2]; 2,4-DC alone 210 g ai/ha): 47%
- X ([2]; 2,4-DC alone 250 g ai/ha): 50%
- X ([3]; 2,4-DC alone 125 g ai/ha): 38%
- X ([3]; 2,4-DC alone 170 g ai/ha): 67%
- X ([3]; 2,4-DC alone 210 g ai/ha): 80%
- X ([3]; 2,4-DC alone 250 g ai/ha): 78%
- X ([4]; 2,4-DC alone 125 g ai/ha): 33%
- X ([4]; 2,4-DC alone 170 g ai/ha): 40%
- X ([4]; 2,4-DC alone 210 g ai/ha): 40%
- X ([4]; 2,4-DC alone 250 g ai/ha): 45%
- X ([5]; 2,4-DC alone 31 g ai/ha): 28%
- X ([5]; 2,4-DC alone 63 g ai/ha): 43%
- X ([5]; 2,4-DC alone 125 g ai/ha): 85%
- X ([5]; 2,4-DC alone 250 g ai/ha): 91%
- X ([5]; 2,4-DC alone 375 g ai/ha): 93%
- X ([6]; 2,4-DC alone 50 g ai/ha): 12%
- X ([6]; 2,4-DC alone 100 g ai/ha): 37%
- X ([6]; 2,4-DC alone 200 g ai/ha): 47%
- X ([7]; 2,4-DC alone 50 g ai/ha): 22%
- X ([7]; 2,4-DC alone 100 g ai/ha): 18%
- X ([7]; 2,4-DC alone 200 g ai/ha): 29%
- X ([8]; 2,4-DC alone 50 g ai/ha): 0%
- X ([8]; 2,4-DC alone 100 g ai/ha): 7%
- X ([8]; 2,4-DC alone 200 g ai/ha): 60%
- sorghum safety in words [9]: safe on sorghum at rates ranging from 31 to 125 g ai/ha irrespective of rating timings
- weed control in words [10]: applied alone controlled (≥85% injury) Johnsongrass at 210 g ai/ha, common lambsquarters at 250 g and goosegrass at all rates
- crop safety in words [11]: alone was safe on sweet corn and sorghum at the lowest rate while safe on yellow corn at 50 or 100 g ai/ha
